From PubChem BioAssay AID724 (NMMLSC, 2007)
Activity calls are given as the source filed them. The rule behind the calls is not given here.

Biological target: fMet-Leu-Phe receptor (Homo sapiens) (UniProt P21462)
Assay: FPR1 fluorescent ligand binding inhibitors, dose response, cell-based, flow cytometry, Ki from IC50 (AID 724)
Conditions: FPR1-expressing cells, fluorescent ligand binding competition; for IC50: measured here: IC50 of ligand binding inhibition

Sequence of fMet-Leu-Phe receptor (Homo sapiens) (P21462 whole entry, looked up): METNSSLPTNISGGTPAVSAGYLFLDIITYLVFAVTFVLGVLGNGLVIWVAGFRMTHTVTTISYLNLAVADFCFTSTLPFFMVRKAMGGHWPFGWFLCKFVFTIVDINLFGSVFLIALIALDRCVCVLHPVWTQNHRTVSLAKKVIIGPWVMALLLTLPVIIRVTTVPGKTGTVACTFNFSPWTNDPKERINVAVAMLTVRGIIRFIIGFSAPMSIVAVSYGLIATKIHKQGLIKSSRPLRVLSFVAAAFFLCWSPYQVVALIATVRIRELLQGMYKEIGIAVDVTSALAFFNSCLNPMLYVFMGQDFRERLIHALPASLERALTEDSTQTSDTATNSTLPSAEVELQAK

Row | IC50 [µM] | Ki | Structure (SMILES)
1 | 1.7 | – | O=C(Oc1ccc2c(=O)c(-c3ccccc3Cl)c(C(F)(F)F)oc2c1)c1cccs1
2 | 59.7 | inactive | COc1ccc(C2/C(=C(\O)c3ccc(C)cc3)C(=O)C(=O)N2Cc2cccnc2)c(OC)c1 (stereo not given)
3 | – | > 44.3 µM (inactive) | O=C(C1=C(O)C(=O)N(CCCn2ccnc2)C1c1cccnc1)c1cc2ccccc2o1 (stereo not given)
4 | 13.6 | – | COc1ccc(-c2c(C(F)(F)F)oc3cc(OC(=O)c4cccnc4)ccc3c2=O)cc1OC
5 | 7.2 | 4.7 µM | CCCCCCN1C(=O)C(=O)/C(=C(\O)c2ccccc2)C1c1ccc(O)c(OC)c1 (stereo not given)
6 | – | > 44.3 µM (inactive) | COc1ccc(OC)c(C2/C(=C(\O)c3ccc(C)cc3)C(=O)C(=O)N2CCC(=O)O)c1 (stereo not given)
7 | – | > 44.3 µM (inactive) | COc1cc(C2C(C(=O)c3cc4ccccc4o3)=C(O)C(=O)N2CCN(C)C)ccc1O (stereo not given)
8 | 5.2 | 3.4 µM | COc1ccc(C2/C(=C(\O)c3ccccc3)C(=O)C(=O)N2CCCn2ccnc2)c(OC)c1 (stereo not given)
9 | 31.1 | inactive | COCCCN1C(=O)C(=O)/C(=C(/O)c2ccccc2)C1c1ccc(C(C)C)cc1 (stereo not given)
10 | 2.8 | 1.8 µM | COCCN1C(=O)C(=O)/C(=C(/O)c2ccccc2)C1c1cc(OC)ccc1OC (stereo not given)
11 | – | > 44.3 µM (inactive) | O=C(O)CCCN1C(=O)C(=O)/C(=C(/O)c2ccccc2)C1/C=C/c1ccccc1 (stereo not given)
12 | 1.7 | – | COc1ccccc1-c1c(C(F)(F)F)oc2cc(OC(=O)c3ccco3)ccc2c1=O
13 | – | > 44.3 µM (inactive) | COc1ccc(/C(O)=C2/C(=O)C(=O)N(CCc3c[nH]c4ccccc34)C2c2ccc(C(C)C)cc2)cc1 (stereo not given)
14 | – | > 44.3 µM (inactive) | COc1ccc(C2C(C(=O)c3cc4ccccc4o3)=C(O)C(=O)N2CCN(C)C)cc1OC (stereo not given)
15 | – | > 44.3 µM (inactive) | Cc1ccc(/C(O)=C2\C(=O)C(=O)N(Cc3cccnc3)C2c2ccc(Br)cc2)cc1 (stereo not given)
16 | – | > 44.3 µM (inactive) | COc1cc(C2C(C(C)=O)=C(O)C(=O)N2c2ccc(Br)cc2)ccc1O (stereo not given)
17 | 25.7 | inactive | COc1ccc(OC)c(C2/C(=C(\O)c3ccccc3)C(=O)C(=O)N2c2ccc(C)c(Cl)c2)c1 (stereo not given)
18 | 9.2 | 6 µM | COc1ccc(OC)c(C2/C(=C(\O)c3ccccc3)C(=O)C(=O)N2c2cccnc2)c1 (stereo not given)
19 | – | > 44.3 µM (inactive) | O=C1C(=O)N(CN2CCOCC2)C(c2ccc(Br)cc2)/C1=C(\O)c1ccccc1 (stereo not given)
20 | 3.8 | – | Cc1nc2c(-c3ccc(Cl)cc3)c(C(F)(F)F)[nH]n2c(=O)c1Cc1ccccc1

Row | IC50 [µM] | Ki | Structure (SMILES)
21 | 5 | – | COc1ccc(-c2c(C(F)(F)F)oc3cc(OC(=O)c4ccco4)ccc3c2=O)cc1OC
22 | – | > 44.3 µM (inactive) | O=C1C(=O)N(c2ccc(F)cc2)C(c2ccc(Br)cc2)/C1=C(/O)c1ccccc1 (stereo not given)
23 | 9.8 | 6.4 µM | COc1ccc(C2C(C(=O)c3ccco3)=C(O)C(=O)N2CCN2CCOCC2)c(OC)c1 (stereo not given)
24 | – | > 44.3 µM (inactive) | O=C(C1=C(O)C(=O)N(CCCN2CCOCC2)C1c1cccnc1)c1cc2ccccc2o1 (stereo not given)
25 | 50.5 | inactive | COCCCN1C(=O)C(=O)/C(=C(/O)c2ccccc2)C1c1ccc(O)c(OC)c1 (stereo not given)
26 | – | > 44.3 µM (inactive) | CCCCCCOc1cccc(N2C(=O)C(=O)/C(=C(\O)c3ccccc3)C2c2cccc(F)c2)c1 (stereo not given)
27 | 50.7 | inactive | CC(C)c1ccc(C2/C(=C(\O)c3ccccc3)C(=O)C(=O)N2Cc2cccnc2)cc1 (stereo not given)
28 | 10.6 | 6.9 µM | O=C(C1=C(O)C(=O)N(CCc2ccccc2)C1c1ccc(Cl)cc1)c1cccs1 (stereo not given)
29 | 0.5 | – | CCc1cc2c(=O)c(-c3nc4ccccc4n3C)c(C)oc2cc1OC(C)=O
30 | – | > 44.3 µM (inactive) | N#Cc1c(N/C(=C\C(=O)c2ccccc2)C(=O)O)sc2c1CCC2
31 | – | > 44.3 µM (inactive) | COc1ccc(C2C(C(=O)c3ccco3)=C(O)C(=O)N2CCCN2CCOCC2)cc1OC (stereo not given)
32 | – | > 44.3 µM (inactive) | O=C1NC(c2ccc(Br)cc2)/C(=C(\O)c2ccc(Cl)cc2)C1=O (stereo not given)
33 | 47.5 | inactive | COc1ccc(C2/C(=C(\O)c3ccccc3)C(=O)C(=O)N2c2cccc(Cl)c2)c(OC)c1 (stereo not given)
34 | – | > 44.3 µM (inactive) | COc1ccc(/C(O)=C2/C(=O)C(=O)NC2c2ccc(OC)cc2OC)cc1 (stereo not given)
35 | – | > 44.3 µM (inactive) | Cc1ccc(N2C(=O)C(=O)/C(=C(\O)c3ccccc3)C2c2cccc(F)c2)cc1Br (stereo not given)
36 | – | > 44.3 µM (inactive) | Cc1ccc(/C(O)=C2\C(=O)C(=O)N(c3nnc(C)s3)C2c2ccc(C(C)C)cc2)cc1 (stereo not given)
37 | 17.2 | inactive | CC(=O)C1=C(O)C(=O)N(CCc2c(C)[nH]c3ccccc23)C1c1cccc(F)c1 (stereo not given)
38 | – | > 44.3 µM (inactive) | O=C(C1=C(O)C(=O)N(CCCn2ccnc2)C1c1cccnc1)c1ccco1 (stereo not given)
39 | 4.4 | 2.9 µM | COc1ccc(C2C(C(=O)c3cccs3)=C(O)C(=O)N2CCN2CCOCC2)c(OC)c1 (stereo not given)
40 | 7.1 | 4.7 µM | COc1ccc(C2C(C(=O)c3cccs3)=C(O)C(=O)N2CCCn2ccnc2)cc1 (stereo not given)
